Test results from paper PMC9699089 (Pathogens, 2022).
Read-outs that look alike come from different tables or passages of the source.

Key:
[1] = molecular target: G4-forming oligonucleotide Pf1 (d[(G3T3A)3G3]); experiment: Native electrospray mass spectrometry, Pf1; assay type: binding, Plasmodium; design: key to Kd Pf1, stoichiometry 1 (Kd1) / Kd Pf1, stoichiometry 2 (Kd2): n.b.: no binding detected; <LOQ: binding detected but below limit of quantitation; conditions: 100 mM TMAA, 1 mM KCl
Description: (§1) Oligonucleotides were purchased in the lyophilized form from Eurogentec (RP-cartridge purification), and dissolved at 1 mM in pure water. TMAA (1 M) was purchased from Santa Cruz Biotechnology and potassium chloride (purity > 99.99%) from Sigma Aldrich (Sigma Aldrich, Saint-Quentin-Fallavier, France). The sample solutions contained 10 µM oligonucleotide and 10 (for CD only) or 20 µM ligand, in a 100 mM TMAA, 1mM KCl buffer. The solutions were incubated overnight at 4 °C before analysis.
(§2) The sample solutions were injected at a 10 µM strand concentration on an Agilent 6560 DTIMS-Q-TOF instrument (Agilent Technologies, Santa Clara, CA, USA), equipped with a dual-ESI source operated in the negative ion mode in soft conditions. The following parameters were used: fragmentor 320 V, trap fill time 1000 µs, trap release time 200 µs, trap entrance grid delta 2 V. The drift tube was filled with helium and the pressure was fixed at 3.89 ± 0.01 Torr (measured by a capacitance diaphragm gauge CDG-500, Agilent Technologies).
(§3) The MS data were extracted using the IM-MS Browser (v. B.08.00; Agilent Technologies). The peak area intensity of each species at the 5- charge state was extracted from their corresponding m/z range (encompassing potassium adducts), and baseline subtracted. The concentrations of all species (free DNA, free ligands, and complexes) and corresponding dissociation constants were determined as previously described.

[2] = Cytotoxicity evaluation, MTT assay; assay type: cell-based, human; conditions: human
Description: These cells are a commonly used human hepatocarcinoma-derived cell line that has characteristics similar to those of primary hepatocytes. These cells express many hepatocyte-specific metabolic enzymes, thus enabling the cytotoxicity of tested product metabolites to be evaluated. […] Duplicate assays were performed for each sample. Each well was microscopically examined for precipitate formation before the medium was aspirated from the wells. After aspiration, 100 µL of MTT solution (0.5 mg/mL in medium without FCS) were then added to each well. […] The MTT solution was removed, and DMSO (100 µL) was added to dissolve the resulting blue formazan crystals. Plates were shaken vigorously (300 rpm) for 5 min. The absorbance was measured at 570 nm with 630 nm as reference wavelength in a BIO-TEK ELx808 Absorbance Microplate Reader. DMSO was used as blank and doxorubicin (Sigma Aldrich) as positive control. Cell viability was calculated as percentage of control (cells incubated without compound). The CC50 was determined from the dose-response curve using TableCurve 2D V5.0 software (Systat Software, Palo Alto, CA, USA).

[3] = system: L. donovani (MHOM/IN/00/DEVI) promastigotes; experiment: In vitro antileishmanial activity on promastigotes, MTT assay; assay type: cell-based; conditions: Leishmania donovani, 72 h incubation, mean +/- SD of three independent experiments
In short: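 Log-phase L. donovani MHOM/IN/00/DEVI promastigotes at 10^6 parasites/mL in Schneider's medium with 20% FCS were exposed to compounds for 72 h at 27 °C, final DMSO under 0.5%. Viability was read by MTT reduction over 4 h, absorbance 570 nm (630 nm reference). IC50 came from regression, three independent experiments.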

[4] = system: human telomeric sequence F21T G-quadruplex; experiment: FRET melting assay, F21T; assay type: binding; conditions: compound 2 μM, oligonucleotide 0.2 μM, K+ conditions
Description: (§4) These were performed with dual-labeled oligonucleotides mimicking the Plasmodium telomeric sequences FPf1T [FAM-5′(GGGTTTA)3-GGG3′-TAMRA] and FPf8T [FAM-5′(GGGTTCA)3GGG3′-TAMRA], the Trypanosoma 9 and 11 chromosomic sequence FTrypBT (also named FEBR1T) [FAM-5′[…]3′-TAMRA], the human telomeric sequence F21T [FAM-(GGGTTA)3-GGG3′-TAMRA] and the human duplex sequence FdxT [FAM5′-[…]-hexaethyleneglycol-[…]3′-TAMRA] [27, 31, 47]. The oligonucleotides were pre-folded in 10 mM lithium cacodylate buffer (pH 7.2), with 10 mM KCl and 90 mM LiCl (K^+ condition). The FAM emissions were recorded at 516 nm using a 492-nm excitation wavelength in the absence and presence of a single compound as a function of temperature (25 to 95 °C) in 96-well microplates using a Stratagene MX3000P real-time PCR device at a rate of 1 °C∙min-1. Data were normalized between 0 and 1, and the required temperature for half-denaturation of oligonucleotides corresponding to the emission value of 0.5 was taken as the Tm. Each experiment was performed in duplicate with 0.2 µM of labeled oligonucleotide and 2 µM of compound under K^+ condition. For each compound, three independent experiments were carried out.

[5] = molecular target: G4-forming oligonucleotide Pf8 (d[(G3T2CA)3G3]); experiment: Native electrospray mass spectrometry, Pf8; assay type: binding, Plasmodium; conditions: 100 mM TMAA, 1 mM KCl
Description: as §1, §2, §3

[6] = system: human duplex sequence FdxT; experiment: FRET melting assay, duplex control FdxT; assay type: binding; conditions: compound 2 μM, oligonucleotide 0.2 μM, K+ conditions
Description: as §4

[7] = system: Plasmodium telomeric sequence FPf8T G-quadruplex; experiment: FRET melting assay, FPf8T; assay type: binding, Plasmodium falciparum; conditions: compound 2 μM, oligonucleotide 0.2 μM, K+ conditions
Description: as §4

[8] = molecular target: G-rich unfolded single-stranded sequence 24nonG4; experiment: Native electrospray mass spectrometry, 24nonG4; assay type: binding; design: key to Kd 24nonG4, stoichiometry 2 (Kd2) / Kd 24nonG4, stoichiometry 1 (Kd1): n.b.: no binding detected; <LOQ: binding detected but below limit of quantitation; conditions: 100 mM TMAA, 1 mM KCl; for Kd: read-out: Kd 24nonG4, stoichiometry 1 (Kd1); for Kd 24nonG4, stoichiometry 2 (Kd2): 2:1 ligand:DNA complex
Description: as §1, §2, §3

[9] = 1:1 ligand:DNA complex, read-out: Kd Pf1, stoichiometry 1 (Kd1)
[10] = 1:1 ligand:DNA complex, read-out: Kd Pf8, stoichiometry 1 (Kd1)
[11] = 2:1 ligand:DNA complex, read-out: Kd Pf8, stoichiometry 2 (Kd2)
[12] = 2:1 ligand:DNA complex, read-out: Kd Pf1, stoichiometry 2 (Kd2)

Compound	Kd [1, 9] [µM]	Kd Pf1, stoichiometry 2 (Kd2) ([1]; 2:1 ligand:DNA complex)	CC50 at 72 h [2] [µM]	IC50 [3] [µM]	ΔTm F21T [4] [°C]	Kd [5, 10] [µM]	Kd [5, 11] [µM]	ΔTm FdxT [6] [°C]	ΔTm FPf8T [7] [°C]	Kd ([8]; 1:1 ligand:DNA complex) [µM]	Kd 24nonG4, stoichiometry 2 (Kd2) [8]	Kd [1, 12] [µM]	Kd Pf1, stoichiometry 1 (Kd1) ([1]; 1:1 ligand:DNA complex)	Kd Pf8, stoichiometry 1 (Kd1) ([5]; 1:1 ligand:DNA complex)	Kd 24nonG4, stoichiometry 1 (Kd1) ([8]; 1:1 ligand:DNA complex)
CN(C)CCCCNCc1cc(-c2ccccc2)c2ccc3c(-c4ccccc4)cc(CNCCCCN(C)C)nc3c2n1 [Compound 1c, 2,9-Bis[(4-dimethylaminobutyl)aminomethyl]-4,7-diphenyl-1,10-phenanthroline]	23	n.b.	10.4 ± 0.7	> 12.5	13.2	3	50	−0.5	10.2	9	<LOQ	–	–	–	–
CN(C)CCCCCNCc1cc(-c2ccccc2)c2ccc3c(-c4ccccc4)cc(CNCCCCCN(C)C)nc3c2n1 [Compound 1d, 2,9-Bis[(5-dimethylaminopentyl)aminomethyl]-4,7-diphenyl-1,10-phenanthroline]	8	–	3.35 ± 0.33	> 12.5	18.1	3	16	1.8	20.5	11	<LOQ	24	–	–	–
c1ccc(-c2cc(CNCCCN3CCCC3)nc3c2ccc2c(-c4ccccc4)cc(CNCCCN4CCCC4)nc23)cc1 [Compound 1l]	10	–	15.2 ± 1.56	> 12.5	14.5	2	59	0.7	14.2	8	<LOQ	37	–	–	–
c1ccc(-c2cc(CNCCc3ccccn3)nc3c2ccc2c(-c4ccccc4)cc(CNCCc4ccccn4)nc23)cc1 [Compound 1m]	–	–	4.34 ± 0.31	> 12.5	1.0	83	–	−0.2	1.0	–	–	–	n.b.	very weakly bound	n.b.
